Test results: patent US8815891B2, “Tricyclic derivative or pharmaceutically acceptable salts thereof, preparation method thereof, and pharmaceutical composition containing the same” (Je Il Pharmaceutical Co., Ltd., priority 2008, dated 2014)
Where a name gives a salt, the structure may show the parent alone.

What was measured:
A549 cell line = assay: Cell growth inhibition of cancer cell lines (SRB assay), A549; assay type: cell-based
Protocol: (§1) The tests on cell growth inhibitory activity were performed with respect to A549 (US, ATCC), SK-OV-3 (Korea Research Institute of Chemical Technology; KRICT), HT-29 (US, ATCC), MCF-7 cell (US, ATCC), using Sulforhodamin-B <SRB> Assay (1989, US National Cancer Institute (NCI)) which was developed to measure the in vitro anti-cancer activity of the drug. […] The samples of the compounds of the Examples according to the present invention were used for the tests, and before the tests, the samples were dissolved in dimethylsulfoxide and diluted with the culture medium (RPMI 1640) to be used. The final concentration of the sample was varied in the range of 0.3˜100 μM. After the culture medium was removed from the 96 well plates, the diluted sample solution was added by 100 μl, and cultured in 37° C., 5% CO2 culture medium for 72 hours. The time zero (Tz) plates were collected at the time point of adding the sample. Upon completing the culture, the medium was removed from each well along with Tz plate, then cold 10% trichloroacetic acid (TCA) was added by 100 μl per well. The wells were left at 4° C. for 1 hour, so that the cells were fixed into the bottom of the plates. After the cells were fixed, the plates were rinsed with water five to six times to remove the remaining trichloroacetic acid solution, and moisture was completely dried at room temperature. The cells were dyed for 30 minutes by adding the dye solution in which 0.4% sulforhodamine-B was dissolved in 1% acetic acid solution, by 100 μl per dried wells. The above was rinsed again with 1% acetic acid solution five to six times to ensure that sulforhodamine-B which had not attached to the cells was removed. The plates were again dried at room temperature. 100 μl of 10 mM tris-buffer was then added to dissolve the dye, and the optical density (OD) at 520 nm was measured with the microplate reader. GI50 of the sample regarding cancer cell was calculated as explained below. Time zero (Tz), control value (C) and test value (T) were obtained, in which Tz corresponds to OD value of time at which the sample is applied and culture is started, C corresponds to OD value of the well which is cultured without treatment with the sample, and T corresponds to OD value of the well which is treated with the sample and then cultured. The degree of cell growth inhibition of the sample was measured using: If […] [Mathematical Formula 1]
(§2) Further, the ability of Examples 2, 42, 49, 52, 72, 74, 101 to increase growth inhibition effect of temozolomide and SN-38 at 2 μM was determined.

HT-29 Cell line = assay: Cell growth inhibition of cancer cell lines (SRB assay), HT-29; assay type: cell-based
Protocol: as §1, §2

MCF-7 Cell line = assay: Cell growth inhibition of cancer cell lines (SRB assay), MCF-7; assay type: cell-based
Protocol: as §1, §2

[1] = test system: Rat Middle Cerebral Artery Occlusion (MCAO) Animal Model; assay: Neuroprotective effect in rat middle cerebral artery occlusion (MCAO) animal model; assay type: in vivo; details: for Infarct volume: 22 hours after reperfusion; for Percent of infraction decrease: vs control group
Protocol: Animal test was performed on male Sprague Dawley rats (KOATECH Co., Ltd., South Korea) weighing 280 to 340 g. Animals were given food and water ad libitum and adapted to the test environment for 1 week. The modified intraluminal filament technique as described by Zea Longa et al. (Stroke, 20:84-91, 1989) was used to induce MCAO. The rats were developed ischemic regions due to insufficient blood flow in striatum and temporal lobe which are the domain regions of the middle cerebral artery and depletion of oxygen and energy sources after the middle cerebral artery occlusion. In order to occlude the middle cerebral artery with the intraluminal suture method, 4-0 nylon suture was cut to 22 mm, and 2 mm of the terminal end was rounded by flame heating. In order to increase the effect of damage preventing and occlusion in the lumen, a probe was coated with silicon to 0.3 mm.
Rats were anaesthetized with isoflurane (3% for induction and 2% for surgical procedure) in a mixture of oxygen/nitrous oxide (30%/70%). The left common carotid artery (CCA) was exposed through a ventral midline incision in the neck. The external carotid artery (ECA), internal carotid artery (ICA), and CCA were carefully isolated and maintained in a Y-shape by use of silk suture. The upper external carotid artery was blocked by a thread, and a minute hole is bored 1 mm below the spot at which the external and internal carotid arteries bifurcate from the common carotid. The probe was inserted in the minute hole and fixed by a thread. The neck wound was closed and each animal was allowed to recover from anesthesia. 120 min after MCA occlusion, each animal was re-anesthetized, and the neck wound was re-opened to remove the thread. Along with the reperfusion, the compound of Example 74 was injected intravenously. 22 hours after the reperfusion, the animals were sacrificed by CO2 suffocation, decapitated, and 2 mm thick six coronal sections were obtained using rodent brain matrix. The coronal slices were incubated in phosphate-buffered saline (PBS) containing 2% 2,3,5-triphenyl tetrazolium chloride (TTC, Sigma) at 37° C. for 30 min, and then fixed in 4% phosphate-buffered formalin. After fixation these brain sections were scanned using a flat-bed scanner. The infarct area was determined by image J (NIH image version 1.59), and the total infarct volume was calculated by: Infarct volume (mm^3)=infarct […]×thickness of slice (2 mm) [Mathematical formula 3]
The statistical analysis of the decrease of infarct volume was performed by Mann Whitney test (*:p<0.05, **:p<0.01).

Structure (SMILES): COc1cc(CN2CCOCC2)cc2[nH]c(=O)c3c(c12)NCCC3 [Example 74, 10-Methoxy-8-(morpholinomethyl)-1,2,3,4-tetrahydrobenzo[h][1,6]naphthyridine-5(6H)-one dihydrochloride]
- SN-38 PF50 (A549 cell line; 2 μM compound, GI50 SN-38 alone / GI50 with compound): 2.2
- Temozolomide PF50 (A549 cell line; 2 μM compound, GI50 temozolomide alone / GI50 with compound): 3.2
- GI50 (A549 cell line; Homo sapiens, 72 hours): 75 µM
- SN-38 PF50 (HT-29 Cell line; 2 μM compound): 3.5
- Temozolomide PF50 (HT-29 Cell line; 2 μM compound): >2.8
- GI50 (HT-29 Cell line; Homo sapiens, 72 hours): 30 µM
- SN-38 PF50 (MCF-7 Cell line; 2 μM compound): 3.0
- Temozolomide PF50 (MCF-7 Cell line; 2 μM compound): 6.3
- GI50 (MCF-7 Cell line; Homo sapiens, MCF7, 72 hours): 45 µM
- Infarct volume ([1]; 10 mg/kg intravenously at reperfusion): 252.38 mm^3
- Percent of infraction decrease ([1]; 10 mg/kg intravenously): 4%
- Infarct volume ([1]; 20 mg/kg intravenously at reperfusion): 124.68 mm^3
- Percent of infraction decrease ([1]; 20 mg/kg intravenously): 53%
- Infarct volume ([1]; 30 mg/kg intravenously at reperfusion): 162.88 mm^3
- Percent of infraction decrease ([1]; 30 mg/kg intravenously): 38%
